Assay results reported in patent publication US5025036A, “Catechol carboxylic acids” (Hoffmann-La Roche Inc., priority 1989, dated 1991).

Experiments:
[1] = tested on: cardiac lipid peroxidation; experiment: In vitro testing of antiperoxidative agents (cardiac lipid peroxidation); assay type: biochemical; settings: rat cardiac liposomes, 60 minutes, 37° C., pH 7.4; read-out: Inhib. of Lipid Peroxidation IC50
Experimental: The test system employs hypoxanthine-xanthine oxidase (XO)-Fe^3+. ADP as the free radical generator and purified, native rat-heart membrane phosphoglyceride in Hepes-KCl buffer, pH 7.4, as the substrate. Inhibition of superoxide-dependent, iron-promoted lipid peroxidation in the linear reaction phase (after 1 hour of reaction) is measured as the net formation of thiobarbituric acid (TBA)-reactive material. In this system, the TBA-reactive material, isolated by HPLC, is exclusively (>95%) malondialdehyde (MDA), a fragmentation end-product arising from fatty acyl hydroperoxides and cyclic endoperoxides.
Conscious male Sprague-Dawley rats (~275 g) maintained on a normal rodent diet were decapitated. The hearts were rapidly removed and perfused via the aorta with ice-cold 10 mM Hepes buffer, pH 7.4. The aorta and atria were removed, and the ventricular tissue was blotted and weighed (wet weight). The hearts were minced on ice with scissors and finally homogenized (100 mg tissue/ml ice-cold buffer) for 15 seconds (3×5 seconds) with a Tekmar Tissumizer at "maximal" setting. The homogenate was filtered through 4-ply cheesecloth, and homogenate lipids were extracted and purified by a modified Bligh-Dyer procedure (M. D. Marshall and M. Kates, Biochem. Biophys. Acta 260, 558 (1972). The cardiac lipids were stored in CHCl3 under nitrogen at -20° C.
Liposomes were prepared from extracted and purified, native rat heart cardiac lipid and were used as substrate for free-radical attack. Cardiac lipid (in CHCl3) was placed in a glass flask and evaporated to dryness under nitrogen at room temperature; the flask was gently rotated during evaporation to yield a thin, dry lipid film. The lipid was taken up in 10 mM Hepes-0.145M CKl, pH 7.4, and was resuspended by indirect anaerobic sonication for 15 minutes at room temperature. The liposome suspension was used immediately.
A chelate was formed in Hepes-KCl buffer between Fe^3+ (1.0 mM FeCl3, final concentration) and ADP (10 mM, final concentration) at pH 7.4 with stirring at room temperature. Chelation was allowed to proceed for 90 minutes prior to use. The chelate was prepared fresh for each days experiments to ensure iron solubility, effective chelation, and valence state.
Malondialdehyde (MDA) equivalents were measured as thiobarbituric acid (TBA)-reactive material by the following modification of published methods. The reaction mixture, prepared fresh daily, contained water:BHT ([…] BHT in absolute ethanol):TBA (1.5% TBA in 0.2M Tris, pH 7.0) in the volume ratio 1:1:5. To each 1.0 ml of peroxidation reaction assayed (see below), 0.35 ml reaction mixture was added. After thorough mixing, the tubes were incubated in an 80° C. shaking water bath for 30 minutes. After this time, the tubes were plunged into an ice water bath, and the reaction was immediately stopped with 0.5 ml ice-cold 91% TCA followed by 2.0 ml CHCl3. After centrifugation for 30 minutes at 2000 rpm in a Sorval HL-8 rotor (4° C.), the absorbance of the washed, pink upper phase was read at 532 nm. A standard curve (0.8-40.0 nmol MDA) was run with every assay. For each curve, MDA was freshly prepared by acidification of 1,1,3,3-tetraethoxypropane with 75% TCA-2.3N HCl (0.15 ml acid mixture with 1.0 ml suitably diluted tetraethoxypropane). Computer-assisted regression analysis of the standard curve was used to quantify the molar amounts of MDA equivalents in the experimental samples.
Cardiac liposomes were subjected to superoxide-dependent, iron-promoted peroxidation in glass vessels to avoid the well-known antioxidant effects of many common polymerizing agents used to fabricate plastic labware. Screening was performed in triplicate in glass 12×75 mm tubes at a final reaction volume of 1.0 ml and a reaction time of 60 minutes. […]

[2] = Antibiotic-Induced Colitis in Hamsters, In Vivo; parameters: species or system male Syrian hamsters (LUG); settings: >1.0 = therapy prolongs survival, ** p < 0.01
Experimental: Male Syrian hamsters (LUG), weighing 80 to 120 g were each given a single dose of 175 mg/kg of clindamycin-phosphate or of clindamycin-hydrochlorideintraperitoneally, to induce colitis. Approximately seven hours after injection, the animals were given the test compound orally or intraperitoneally and the therapy was continued twice a day for a period of four more days. For oral administration, the […] was suspended in water or dissolved in dimethylsulfoxide and delivered to the animals by gavage using an oral intubating needle. The effect of the therapy was measured by use of the Hazard Ratio, which is the ratio of the mortality of the animals treated with the test inhibitor compound contained in a vehicle to the mortality of the animals treated with the vehicle containing none of the test inhibitor compound. The mortality was determined for the test inhibitor compound-treated groups and for the vehicle-treated groups, respectively, twice daily, and was evaluated by comparing the survival curves of each group. The Kaplan-Meier estimate of the survival curve was calculated for each group and the Mantel-Cox (logrank) test was used to compare the survival curve of each test inhibitor compound-treated (therapy) group to that of the corresponding vehicle control group. […] (See, J. G. Bartlett et al. Amer. J. Vet. Res. 39: 1525-1530 (1978)).

Row | IC50 [1] [nM] | Compound | Hamster Colitis Model Hazard Ratio ([2]; 10 mg/kg p.o) | Hamster Colitis Model Hazard Ratio ([2]; 100 mg/kg p.o)
1 | 700 | CCCc1c(OCCCCCCc2ccc(C(C)C)c(O)c2O)ccc(C(C)=O)c1O [1-[2-hydroxy-4 [6-[2,3 dihydroxy-4-(1-methylethyl)phenyl]hexyloxy]-3 propylphenyl]ethanone] | – | –
2 | 700 | CCCc1c(OCCCCCCc2cccc(O)c2O)ccc(C(C)=O)c1O [1-[2-hydroxy-4-[6-(2,3-dihydroxyphenyl)hexyloxy]-3-propylphenyl]ethanone] | – | –
3 | 300 | CCCc1c(OCCCCCCc2cccc(O)c2O)ccc(C(=O)O)c1O [4-[6-(2,3-Dihydroxyphenyl)hexyloxy]-2-hydroxy-3-propylbenzoic acid] | 2.26 | 4.22
4 | > 1000 | O=C(O)c1ccc(OCCCCCCc2cccc(O)c2O)cc1O [4-[6-(2,3-Dihydroxyphenyl)hexyloxy]-2-hydroxybenzoic acid] | – | –
5 | > 1000 | O=C(O)c1ccc(OCCCCCCc2cccc(O)c2O)cc1 [4-[6-(2,3-Dihydroxyphenyl)hexyloxy]benzoic acid] | – | –
6 | 600 | CCCc1c(OCCCCCCc2ccc(O)c(O)c2)ccc(C(=O)O)c1O [4-[6-(3,4-dihydroxyphenyl)hexyloxy]-2-hydroxy-3-propylbenzoic acid] | – | –
7 | 700 | CCCc1c(OCCCCCCc2ccc(C(C)C)c(O)c2O)ccc(C(=O)O)c1O [4-[6-[2,3-dihydroxy-4-(1-methylethyl)phenyl]hexyloxy]-2-hydroxy-3-propylbenzoic acid] | – | –
8 | 300 | CCCc1c(OCCCCCCCCc2cccc(O)c2O)ccc(C(=O)O)c1O [4-[8-(2,3-dihydroxyphenyl)octyloxy]-2-hydroxy-3-propylbenzoic acid] | – | –
9 | 400 | CCCc1c(OCCCCCCCCCCc2cccc(O)c2O)ccc(C(=O)O)c1O [4-[10-(2,3-dihydroxyphenyl)decyloxy]-2-hydroxy-3-propylbenzoic acid] | – | –

Row | Compound | IC50 [1] [nM] | Hamster Colitis Model Hazard Ratio ([2]; 10 mg/kg p.o) | Hamster Colitis Model Hazard Ratio ([2]; 100 mg/kg p.o)
10 | CCCc1c(OCCCCc2cccc(O)c2O)ccc(C(C)=O)c1O [1-[2-Hydroxy-4-[4-(2,3-dihydroxyphenyl)butoxy]-3-propylphenyl]ethanone] | > 1000 | – | –
11 | CCCc1c(OCCCCc2cccc(O)c2O)ccc(C(=O)O)c1O [4-[4-(2,3-dihydroxyphenyl)butoxy]-2-hydroxy-3-propylbenzoic acid] | 500 | 1.35 | 0.1
